Key:
[1] = biological target: T1, pseudo-kinase domain (JH2, amino-acids 536-812) of human Wild Type JAK2 (Homo sapiens, UniProt O60674, F794H/W659A/W777A); test: JAK2 LanthaScreen JH2-WT Binding Assay; conditions: JAK2 JH2-WT 0.145 nM, 50 nM tracer, 1 hour at 25° C.; read-out: JH2 BIND WT
T1 construct: pseudo-kinase domain (JH2, amino-acids 536-812 with 3 surface mutations W659A, W777A, F794H); His (C); purchased BPS Bioscience 79463; host or cells: baculovirus expression system
Method in brief: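 TR-FRET tracer displacement: 0.145 nM biotinylated JH2 protein, 50 nM fluorescent tracer, 0.25 nM streptavidin-Tb, compound dilution series; 50 mM Tris pH 7.5, 10 mM MgCl2, 5 mM DTT; 1 h, 25° C. Non-specific binding with 2 mM ATP. IC50 by 4-parameter fit.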

[2] = biological target: T2, pseudo-kinase domain (JH2, amino-acids 536-812) of human V617F mutant JAK2 (Homo sapiens, UniProt O60674, F794H/V617F/W659A/W777A); test: JAK2 LanthaScreen JH2-V617F Binding Assay; conditions: JAK2 JH2-V617F 0.26 nM, 50 nM tracer, 1 hour at 25° C.; read-out: JH2 BIND V617F
T2 construct: pseudo-kinase domain (JH2, amino-acids 536-812 with 3 surface mutations W659A, W777A, F794H); His (C); purchased BPS Bioscience 79498; host or cells: baculovirus expression system
T2 sequence (O60674 536-812 V617F/W659A/W777A/F794H): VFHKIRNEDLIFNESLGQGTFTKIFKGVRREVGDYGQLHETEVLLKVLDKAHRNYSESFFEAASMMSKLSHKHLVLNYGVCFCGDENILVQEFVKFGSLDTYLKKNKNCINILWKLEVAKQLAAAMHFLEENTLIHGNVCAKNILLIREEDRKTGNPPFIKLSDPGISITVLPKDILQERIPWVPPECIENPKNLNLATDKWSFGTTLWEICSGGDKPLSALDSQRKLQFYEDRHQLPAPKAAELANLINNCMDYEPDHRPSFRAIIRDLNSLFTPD
Method in brief: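 Biotinylated His-Avi-tagged JH2 protein was baculovirus-expressed and used at 0.26 nM. It was incubated with compound, 50 nM fluorescent JH2 tracer and 0.25 nM streptavidin-Tb for 1 h at 25 °C in pH 7.5 Tris buffer with MgCl2, BSA, DTT. Non-specific binding was defined with 2 mM ATP. IC50 came from four-parameter fits of TR-FRET signal.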

[3] = biological target: T3, catalytic domain (JH1, amino acids 826-1132) of human JAK2 (Homo sapiens, UniProt O60674); test: JAK2 LanthaScreen JH1 Binding Assay; conditions: JAK2 JH1 1.5 nM, 50 nM tracer, 2 hours at 25° C.; read-out: JH1 BIND
T3 construct: catalytic domain (JH1, amino acids 826-1132) of human JAK2; FLAG (N); biotin (biotinylated); purchased Carna Biosciences 08-445-20N; host or cells: baculovirus expression system
T3 sequence (O60674 826-1132): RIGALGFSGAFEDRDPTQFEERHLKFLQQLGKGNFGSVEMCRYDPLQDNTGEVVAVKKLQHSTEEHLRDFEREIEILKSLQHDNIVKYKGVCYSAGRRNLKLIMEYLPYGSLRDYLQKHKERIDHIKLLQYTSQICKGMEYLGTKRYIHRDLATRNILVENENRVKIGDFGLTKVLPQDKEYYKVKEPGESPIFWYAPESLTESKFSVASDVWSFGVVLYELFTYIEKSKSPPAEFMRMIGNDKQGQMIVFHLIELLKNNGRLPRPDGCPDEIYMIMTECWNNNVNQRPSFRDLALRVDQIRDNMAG
Method in brief: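 FLAG-tagged, biotinylated JAK2 JH1 (aa 826-1132, baculovirus-expressed; 1.5 nM) incubated 2 h at 25° C with compounds, 50 nM fluorescent tracer and 0.5 nM Streptavidin-Tb in Tris pH 7.5 buffer with MgCl2, Brij-35, BSA, EGTA, glycerol, DTT. Nonspecific binding defined with 2 mM ATP; TR-FRET IC50 from four-parameter fit.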

[4] = biological target: catalytic domain (JH1, amino acids 808-1132) of human JAK2 (Homo sapiens, UniProt O60674); test: JAK2 HTRF Enzyme Activity Assay; type: biochemical; conditions: ATP 30 µM, 60 minutes at 25° C.; read-out: V617F ENZ 30 UM
Sequence of catalytic domain (JH1, amino acids 808-1132) of human JAK2 (O60674 808-1132 limits assumed): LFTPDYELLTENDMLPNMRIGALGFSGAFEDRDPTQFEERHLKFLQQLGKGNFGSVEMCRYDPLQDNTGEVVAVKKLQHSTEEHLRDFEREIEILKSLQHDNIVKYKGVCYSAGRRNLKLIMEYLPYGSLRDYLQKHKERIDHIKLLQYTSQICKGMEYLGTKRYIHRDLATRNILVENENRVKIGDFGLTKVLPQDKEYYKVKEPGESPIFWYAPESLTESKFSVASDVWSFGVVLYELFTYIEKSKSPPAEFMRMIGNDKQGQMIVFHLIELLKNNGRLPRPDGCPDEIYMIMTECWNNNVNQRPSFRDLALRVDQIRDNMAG

T1 sequence (O60674 536-812 W659A/W777A/F794H): as the sequence (O60674 536-812 V617F/W659A/W777A/F794H) above, with F82V counted along it

Compound | IC50 [1] [µM] | IC50 [2] [µM] | IC50 [3] [µM] | IC50 [4] [µM]
COC(=O)N[C@@H]1CC[C@@H](n2c(=O)n(C)c3cnc(Nc4cccc(-c5ccc6c(c5)OCCN6C)n4)cc32)C1 [Example 11, Methyl ((1R,3R)-3-(3-methyl-6-((6-(4-methyl-3,4-dihydro-2H-benzo[b][1,4]oxazin-7-yl)pyridin-2-yl)amino)-2-oxo-2,3-dihydro-1H-imidazo[4,5-c]pyridin-1-yl)cyclopentyl)carbamate] | ≤ 0.01 | ≤ 0.01 | > 1 | > 1
COC(=O)Nc1cc(Nc2cc3c(cn2)n(C)c(=O)n3[C@@H]2CC[C@@H](NC(=O)OC)C2)cc(-c2cnn(C)c2)c1 [Example 53, Methyl ((1R,3R)-3-(6-((3-((methoxycarbonyl)amino)-5-(1-methyl-1H-pyrazol-4-yl)phenyl)amino)-3-methyl-2-oxo-2,3-dihydro-1H-imidazo[4,5-c]pyridin-1-yl)cyclopentyl)carbamate] | ≤ 0.01 | 0.01 to 0.1 | > 1 | > 1
COC(=O)N[C@@H]1CC[C@@H](n2c(=O)n(C)c3cnc(Nc4cc(NC(=O)OC5CC5)cc(OC)c4)cc32)C1 [Example 55, Methyl ((1R,3R)-3-(6-((3-((cyclopropoxycarbonyl)amino)-5-methoxyphenyl)amino)-3-methyl-2-oxo-2,3-dihydro-1H-imidazo[4,5-c]pyridin-1-yl)cyclopentyl)carbamate] | ≤ 0.01 | 0.01 to 0.1 | > 1 | > 1
[2H]C([2H])([2H])n1c(=O)n([C@@H]2CC[C@@H](NC(=O)OC)C2)c2cc(Nc3cc(C(=O)N4CCOCC4)cc(-c4ccc(C(F)F)s4)n3)ncc21 [Example 104, Methyl ((1R,3R)-3-(6-((6-(5-(difluoromethyl)thiophen-2-yl)-4-(morpholine-4-carbonyl)pyridin-2-yl)amino)-3-(methyl-d3)-2-oxo-2,3-dihydro-1H-imidazo[4,5-c]pyridin-1-yl)cyclopentyl)carbamate] | ≤ 0.01 | ≤ 0.01 | > 1 | 0.5 to 1
COC(=O)N[C@@H]1CC[C@@H](n2c(=O)n(C)c3cnc(Nc4cccc(-c5ccc6c(c5)OCCO6)n4)cc32)C1 [Example 8, Methyl ((1R,3R)-3-(6-((6-(2,3-dihydrobenzo[b][1,4]dioxin-6-yl)pyridin-2-yl)amino)-3-methyl-2-oxo-2,3-dihydro-1H-imidazo[4,5-c]pyridin-1-yl)cyclopentyl)carbamate] | ≤ 0.01 | ≤ 0.01 | > 1 | > 1
[2H]C([2H])([2H])n1c(=O)n([C@@H]2CC[C@@H](NC(=O)OC)C2)c2cc(Nc3cc(C(C)(C)O)cc(-c4ncc(C(F)(F)F)s4)n3)ncc21 [Example 100, Methyl ((1R,3R)-3-(6-((4-(2-hydroxypropan-2-yl)-6-(5-(trifluoromethyl)thiazol-2-yl)pyridin-2-yl)amino)-3-(methyl-d3)-2-oxo-2,3-dihydro-1H-imidazo[4,5-c]pyridin-1-yl)cyclopentyl)carbamate] | ≤ 0.01 | ≤ 0.01 | > 1 | > 1
COC(=O)N[C@@H]1CC[C@@H](n2c(=O)n(C)c3cnc(Nc4ccc5cccc(-c6cnn(C)c6)c5n4)cc32)C1 [Example 33, Methyl ((1R,3R)-3-(3-methyl-6-((8-(1-methyl-1H-pyrazol-4-yl)quinolin-2-yl)amino)-2-oxo-2,3-dihydro-1H-imidazo[4,5-c]pyridin-1-yl)cyclopentyl)carbamate] | 0.01 to 0.1 | 0.01 to 0.1 | > 1 | > 1
[2H]C([2H])([2H])n1c(=O)n([C@@H]2CC[C@@H](NC(=O)OC)C2)c2cc(Nc3ccc4cc(-c5cnn(C)c5)cc(C(F)(F)F)c4n3)ncc21 [Example 20, Methyl ((1R,3R)-3-(3-(methyl-d3)-6-((6-(1-methyl-1H-pyrazol-4-yl)-8-(trifluoromethyl)quinolin-2-yl)amino)-2-oxo-2,3-dihydro-1H-imidazo[4,5-c]pyridin-1-yl)cyclopentyl)carbamate] | ≤ 0.01 | ≤ 0.01 | > 1 | > 1
COC(=O)Nc1cc(Nc2cc3c(cn2)n(C)c(=O)n3C2[C@H]3CN(C(=O)OC)C[C@@H]23)cc(-c2cnn(C)c2)c1 (stereo partly drawn) [Example 39, Methyl (1R,5S)-6-(6-((3-((methoxycarbonyl)amino)-5-(1-methyl-1H-pyrazol-4-yl)phenyl)amino)-3-methyl-2-oxo-2,3-dihydro-1H-imidazo[4,5-c]pyridin-1-yl)-3-azabicyclo[3.1.0]hexane-3-carboxylate] | 0.1 to 0.5 | 0.1 to 0.5 | > 1 | > 1
[2H]C([2H])([2H])n1c(=O)n([C@@H]2CC[C@@H](NC(=O)OC)C2)c2cc(Nc3cccc(C4CC4)n3)ncc21 [Example 50, Methyl ((1R,3R)-3-(6-((6-cyclopropylpyridin-2-yl)amino)-3-(methyl-d3)-2-oxo-2,3-dihydro-1H-imidazo[4,5-c]pyridin-1-yl)cyclopentyl)carbamate] | ≤ 0.01 | 0.01 to 0.1 | > 1 | > 1
[2H]C([2H])([2H])n1c(=O)n([C@@H]2CC[C@@H](NC(=O)OC)C2)c2cc(Nc3cc(C(=O)N4CC5(CCN5C)C4)c4cccc(C(F)(F)F)c4n3)ncc21 [Example 3, Methyl ((1R,3R)-3-(3-(methyl-d3)-6-((4-(1-methyl-1,6-diazaspiro[3.3]heptane-6-carbonyl)-8-(trifluoromethyl)quinolin-2-yl)amino)-2-oxo-2,3-dihydro-1H-imidazo[4,5-c]pyridin-1-yl)cyclopentyl)carbamate] | ≤ 0.01 | ≤ 0.01 | > 1 | 0.5 to 1
COC(=O)N[C@@H]1CC[C@@H](n2c(=O)n(C)c3cnc(Nc4ccc5cc(-c6cnn(C)c6)ccc5n4)cc32)C1 [Example 32, Methyl ((1R,3R)-3-(3-methyl-6-((6-(1-methyl-1H-pyrazol-4-yl)quinolin-2-yl)amino)-2-oxo-2,3-dihydro-1H-imidazo[4,5-c]pyridin-1-yl)cyclopentyl)carbamate] | 0.1 to 0.5 | 0.1 to 0.5 | > 1 | > 1
COC(=O)N[C@@H]1CC[C@@H](n2c(=O)n(C)c3cnc(Nc4cccc(OC5CCOCC5)n4)cc32)C1 [Example 37, Methyl ((1R,3R)-3-(3-methyl-2-oxo-6-((6-((tetrahydro-2H-pyran-4-yl)oxy)pyridin-2-yl)amino)-2,3-dihydro-1H-imidazo[4,5-c]pyridin-1-yl)cyclopentyl)carbamate] | ≤ 0.01 | 0.01 to 0.1 | > 1 | > 1
[2H]C([2H])([2H])n1c(=O)n([C@@H]2CC[C@@H](NC(=O)OC)C2)c2cc(Nc3ccc4ncc(C5CC5)n4n3)ncc21 [Example 54, Methyl ((1R,3R)-3-(6-((3-cyclopropylimidazo[1,2-b]pyridazin-6-yl)amino)-3-(methyl-d3)-2-oxo-2,3-dihydro-1H-imidazo[4,5-c]pyridin-1-yl)cyclopentyl)carbamate] | ≤ 0.01 | ≤ 0.01 | > 1 | > 1
[2H]C([2H])([2H])n1c(=O)n([C@@H]2CC[C@](C)(NC(=O)C3CC3)C2)c2cc(Nc3cc(CO)c4nn(C)c(-c5cnn(C(F)(F)F)c5)c4n3)ncc21 [Example 117, N-((1S,3R)-3-(6-((7-(hydroxymethyl)-2-methyl-3-(1-(trifluoromethyl)-1H-pyrazol-4-yl)-2H-pyrazolo[4,3-b]pyridin-5-yl)amino)-3-(methyl-d3)-2-oxo-2,3-dihydro-1H-imidazo[4,5-c]pyridin-1-yl)-1-methylcyclopentyl)cyclopropanecarboxamide] | ≤ 0.01 | ≤ 0.01 | > 1 | > 1
C#CCOC(=O)N[C@@H]1CC[C@@H](n2c(=O)n(C)c3cnc(Nc4cc(NC(=O)OC5CCC5)cc(-c5cnn(C)c5)c4)cc32)C1 [Example 47, Prop-2-yn-1-yl ((1R,3R)-3-(6-((3-((cyclobutoxycarbonyl)amino)-5-(1-methyl-1H-pyrazol-4-yl)phenyl)amino)-3-methyl-2-oxo-2,3-dihydro-1H-imidazo[4,5-c)pyridin-1-yl)cyclopentyl)carbamate] | ≤ 0.01 | ≤ 0.01 | > 1 | > 1
